The target of assay [1] is T1, hSOS1 (hSOS1-mediated nucleotide exchange of hK-RasG12C) (Homo sapiens, UniProt Q07889).
T1 construct: hSOS1 (amino acid 564-1049); made in house; host or cells: E. coli BL21 (DE3)
T1 sequence (Q07889 with tags, fused parts or gaps): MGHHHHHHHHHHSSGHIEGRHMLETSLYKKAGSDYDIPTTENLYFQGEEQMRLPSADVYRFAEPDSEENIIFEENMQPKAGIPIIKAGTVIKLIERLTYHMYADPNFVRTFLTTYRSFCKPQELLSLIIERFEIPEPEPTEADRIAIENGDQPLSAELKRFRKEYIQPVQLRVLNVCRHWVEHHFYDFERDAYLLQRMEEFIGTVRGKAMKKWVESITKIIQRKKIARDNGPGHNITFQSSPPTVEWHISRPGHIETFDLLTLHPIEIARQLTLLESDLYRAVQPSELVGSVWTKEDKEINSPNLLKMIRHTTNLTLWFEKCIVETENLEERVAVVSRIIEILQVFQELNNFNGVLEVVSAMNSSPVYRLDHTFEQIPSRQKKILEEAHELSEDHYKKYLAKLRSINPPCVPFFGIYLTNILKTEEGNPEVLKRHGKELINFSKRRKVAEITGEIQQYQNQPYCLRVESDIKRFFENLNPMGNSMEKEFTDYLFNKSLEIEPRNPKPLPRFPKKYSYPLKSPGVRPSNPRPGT
Put plainly: Biochemical Assay 2: hK-RasG12C activation assay by hSOS1 at high GTP concentration (HTRF nucleotide exchange). To be noted: high GTP (50 μM GTP). (In general: Time-resolved FRET reads energy transfer from a long-lived donor to a nearby acceptor.)

Assay [2] concerns the target T2, hSOS1 (hSOS1-mediated loading of hK-RasG12C-GDP) (Homo sapiens, UniProt Q07889).
T2 construct: hSOS1 (amino acid 564-1049); made in house; host or cells: E. coli BL21 (DE3)
T2 sequence (Q07889 with tags, fused parts or gaps): T1 sequence (Q07889 with tags, fused parts or gaps)
Put plainly: Biochemical Assay 3: hK-RasG12C activation assay by hSOS1 (loading with fluorescent GTP analog, HTRF). To be noted: no GTP.

SMILES strings stand for the structures.

As a reminder, the IC50 is the concentration at which inhibition is half-maximal. The low end stands for greater potency, the high end for weaker potency. For the molecule `Cc1nc(NC(C)c2ccc(-c3ccccc3CN(C)C)s2)c2cc(OCCO)ncc2n1` (stereo not shown) [Example 74, 2-[(4-{[1-(5-{2-[(dimethylamino)methyl]phenyl}thiophen-2-yl)ethyl]amino}-2-methylpyrido[3,4-d]pyrimidin-6-yl)oxy]ethanol], the half-maximal inhibitory concentration (IC50) was 92.8 nM in assay [1] and 107 nM in assay [2].
The like results for `Cc1nc(N[C@H](C)c2cccc(Br)c2)c2cc(OCC3CC3)ncc2n1` [Example 75, N-[(1R)-1-(3-bromophenyl)ethyl]-6-(cyclopropylmethoxy)-2-methylpyrido[3,4-d]pyrimidin-4-amine] were, in that order, 3190 nM and 15200 nM.
On the same counts, the results for `Cc1nc(NC(C)c2ccc(-c3ccccc3CN(C)C)s2)c2cc(OCCCO)ncc2n1` (stereo not shown) [Example 76, 3-[(4-{[1-(5-{2-[(dimethylamino)methyl]phenyl}thiophen-2-yl)ethyl]amino}-2-methylpyrido[3,4-d]pyrimidin-6-yl)oxy]propan-1-ol] are 49.9 nM and 73 nM.
The like results for `Cc1nc(NC(C)c2ccc(-c3ccccc3CN(C)C)s2)c2cc(OC3CCS(=N)(=O)CC3)ncc2n1` (stereo not shown) [Example 77, N-[1-(5-{2-[(dimethylamino)methyl]phenyl}-2-thienyl)ethyl]-6-[(1-imino-1-oxidohexahydro-1lambda4-thiopyran-4-yl)oxy]-2-methylpyrido[3,4-d]pyrimidin-4-amine] were, in that order, 58.8 nM and 84.3 nM.
Consider `Cc1nc(N[C@H](C)c2cccc(Br)c2)c2cc(OCCN(C)C)ncc2n1` [Example 78, N-[(1R)-1-(3-bromophenyl)ethyl]-6-[2-(dimethylamino)ethoxy]-2-methylpyrido[3,4-d]pyrimidin-4-amine], for which the results for the IC50 in assay [1] and in assay [2] were 1040 nM and 2270 nM, respectively.
The like results for `Cc1nc(N[C@H](C)c2cccc(Br)c2)c2cc(NCCS(C)(=O)=O)ncc2n1` [Example 83] were, in that order, 1340 nM and 1090 nM.
On the same counts, the results for `Cc1nc(N[C@H](C)c2cccc(Br)c2)c2cc(NCCn3ccnc3)ncc2n1` [Example 84, N4-[(1R)-1-(3-bromophenyl)ethyl]-N6-[2-(1H-imidazol-1-yl)ethyl]-2-methylpyrido[3,4-d]pyrimidine-4,6-diamine] are 1030 nM and 1210 nM.
As to `Cc1nc(NC(C)c2ccc(-c3ccccc3CN(C)C)s2)c2cc(NCC3CCNC(=O)C3)ncc2n1` (stereo not shown) [Example 86, 4-{[(4-{[1-(5-{2-[(dimethylamino)methyl]phenyl}thiophen-2-yl)ethyl]amino}-2-methylpyrido[3,4-d]pyrimidin-6-yl)amino]methyl}piperidin-2-one], the IC50 is 127 nM in assay [1] and 144 nM in assay [2].
For `Cc1nc(NC(C)c2ccc(-c3ccccc3CN(C)C)s2)c2cc(N3CC(NC(=O)CCCn4c(-c5ccccn5)nc(C)c4C)C3)ncc2n1` (stereo not shown) [Example 87, N-[1-(4-{[1-(5-{2-[(dimethylamino)methyl]phenyl}thiophen-2-yl)ethyl]amino}-2-methylpyrido[3,4-d]pyrimidin-6-yl)azetidin-3-yl]-4-[4,5-dimethyl-2-(pyridin-2-yl)-1H-imidazol-1-yl]butanamide], the half-inhibitory concentration (IC50) was determined as 240 nM in assay [1] and 228 nM in assay [2].
The like results for `Cc1nc(NC(C)c2ccc(-c3ccccc3CN(C)C)s2)c2cc(N3CC(NC(=O)c4ccccc4)C3)ncc2n1` (stereo not shown) [Example 88, N-[1-(4-{[1-(5-{2-[(dimethylamino)methyl]phenyl}thiophen-2-yl)ethyl]amino}-2-methylpyrido[3,4-d]pyrimidin-6-yl)azetidin-3-yl]benzamide] were, in that order, 161 nM and 173 nM.
Regarding `Cc1nc(NC(C)c2ccc(-c3ccccc3CN(C)C)s2)c2cc(N3CC(NC(=O)Cc4ccccc4)C3)ncc2n1` (stereo not shown) [Example 89, N-[1-(4-{[1-(5-{2-[(dimethylamino)methyl]phenyl}thiophen-2-yl)ethyl]amino}-2-methylpyrido[3,4-d]pyrimidin-6-yl)azetidin-3-yl]-2-phenylacetamide], the IC50 was 111 nM in assay [1] and 132 nM in assay [2].
With `Cc1nc(NC(C)c2ccc(-c3ccccc3CN(C)C)s2)c2cc(N3CC(NC(=O)C4CCCCC4)C3)ncc2n1` (stereo not shown) [Example 90, N-[1-(4-{[1-(5-{2-[(dimethylamino)methyl]phenyl}thiophen-2-yl)ethyl]amino}-2-methylpyrido[3,4-d]pyrimidin-6-yl)azetidin-3-yl]cyclohexanecarboxamide], the IC50 came out at 154 nM in assay [1] and 190 nM in assay [2].
The like results for `Cc1nc(NC(C)c2ccc(-c3ccccc3CN(C)C)s2)c2cc(N3CC(NC(=O)CC4CC4)C3)ncc2n1` (stereo not shown) [Example 91, 2-cyclopropyl-N-[1-(4-{[1-(5-{2-[(dimethylamino)methyl]phenyl}thiophen-2-yl)ethyl]amino}-2-methylpyrido[3,4-d]pyrimidin-6-yl)azetidin-3-yl]acetamide] were, in that order, 137 nM and 179 nM.
Turning to `Cc1nc(NC(C)c2ccc(-c3ccccc3CN(C)C)s2)c2cc(N3CC(N)C3)ncc2n1` (stereo not shown) [Example 93, 6-(3-aminoazetidin-1-yl)-N-[1-(5-{2-[(dimethylamino)methyl]phenyl}thiophen-2-yl)ethyl]-2-methylpyrido[3,4-d]pyrimidin-4-amine], the IC50 in assay [1] was found to be 69.2 nM; in assay [2], 82.9 nM.
Turning to `Cc1nc(NC(C)c2ccc(-c3ccccc3CN(C)C)s2)c2cc(N3CC(NS(=O)(=O)c4ccccc4)C3)ncc2n1` (stereo not shown) [Example 94, N-[1-(4-{[1-(5-{2-[(dimethylamino)methyl]phenyl}thiophen-2-yl)ethyl]amino}-2-methylpyrido[3,4-d]pyrimidin-6-yl)azetidin-3-yl]benzenesulfonamide], the figures for the concentration for half-maximal inhibition (IC50) in assay [1] and in assay [2] were 163 nM and 170 nM, respectively.
The like results for `Cc1nc(NC(C)c2ccc(-c3ccccc3CN(C)C)s2)c2cc(N3CC(NS(=O)(=O)Cc4ccccc4)C3)ncc2n1` (stereo not shown) [Example 95, N-[1-(4-{[1-(5-{2-[(dimethylamino)methyl]phenyl}thiophen-2-yl)ethyl]amino}-2-methylpyrido[3,4-d]pyrimidin-6-yl)azetidin-3-yl]-1-phenylmethanesulfonamide] were, in that order, 240 nM and 204 nM.
On the same counts, the results for `Cc1nc(NC(C)c2ccc(-c3ccccc3CN(C)C)s2)c2cc(N3CC(NC(=O)Nc4ccccc4)C3)ncc2n1` (stereo not shown) [Example 96, 1-[1-(4-{[1-(5-{2-[(dimethylamino)methyl]phenyl}thiophen-2-yl)ethyl]amino}-2-methylpyrido[3,4-d]pyrimidin-6-yl)azetidin-3-yl]-3-phenylurea] are 226 nM and 206 nM.

The record behind these values is US20220274979A1 (Bayer Pharma Aktiengesellschaft, priority 2018, published 2022).
